In patent US20260022143A1, “Cyclic Peptide Inhibitors of IL-23” (JANSSEN PHARMACEUTICA NV, priority 2022, published 2026) one finds EPSA data, which are given here for nine molecules.

Positions of bridges follow the written chain, without caps; N, C: chain ends. Non-standard residues stand in square brackets, D forms with d. Residues, ends and D or L forms follow the SMILES beside them. *: point of attachment. Trp(7-(3-AcNH-Ph)) = CC(=O)Nc1cccc(-c2cccc3c(C[C@H](N)C(=O)O)c[nH]c23)c1; Me3N+(CH2)2O(CH2)2O(CH2)2CO = C[N+](C)(C)CCOCCOCCC(=O)*; CH2CH2OCH2CH2OCH2CH2NMe3+ = C[N+](C)(C)CCOCCOCC*; Trp(7-Me) = Cc1cccc2c(C[C@H](N)C(=O)O)c[nH]c12; PEG9 = NCCOCCOCCOCCOCCOCCOCCOCCOCCOCCC(=O)O; Hexanoyl(6-NMe3+) = C[N+](C)(C)CCCCCC(=O)*; 3Pal(5-Me) = Cc1cncc(C[C@H](N)C(=O)O)c1; 2Nal = N[C@@H](Cc1ccc2ccccc2c1)C(=O)O; AEF = NCCOc1ccc(C[C@H](N)C(=O)O)cc1; dNMeY = CN[C@H](Cc1ccc(O)cc1)C(=O)O; 3Pal = N[C@@H](Cc1cccnc1)C(=O)O; Lys(Me) = CNCCCC[C@H](N)C(=O)O; X7 = COCCOCCOCCOCCOCCOCCC(=O)*; X90 = COCCOCCOCC[N+](C)(C)CC*; Pen = CC(C)(S)[C@H](N)C(=O)O; αMeK = C[C@](N)(CCCCN)C(=O)O; Thp = NC1(C(=O)O)CCOCC1; Dap = NC[C@H](N)C(=O)O; X3 = C[N+](C)(C)CCCCC*; Me2NCH2CH2 = CN(C)CC*; Sar = CNCC(=O)O

A short description of this data set: Exposed Polar Surface Area (EPSA). Particulars: SFC on Chirex 3014 column; sample 1 mM DMSO stock; read-out: EPSA. The class given is physicochemical. In short, it runs like this: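 Polarity measured by SFC on a Chirex 3014 column (35 °C, 4 mL/min) with methanol/ammonium formate in CO2 as gradient eluent. Retention times were normalised to EPSA (Å^2) against eight reference compounds.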
In the case of `CC(=O)NCCCC[C@@H]1NC(=O)[C@H](Cc2c[nH]c3c(-c4cccc(NC(C)=O)c4)cccc23)NC(=O)[C@H]([C@@H](C)O)NC(=O)[C@H](CC(N)=O)NC(=O)[C@@H](NC(=O)[C@@H](CCCNC(=N)N)NC(C)=O)C(C)(C)SSC(C)(C)[C@@H](C(=O)N[C@@H](Cc2ccc(OCCCCC[N+](C)(C)C)cc2)C(=O)N[C@@H](Cc2ccc3ccccc3c2)C(=O)NC2(C(=O)N[C@@H](CCC(=O)O)C(=O)N[C@@H](CC(N)=O)C(=O)N[C@@H](Cc3cncc(C)c3)C(=O)N(C)CC(N)=O)CCOCC2)NC1=O` [compound 540, MeCO-r-Pen(3)-N-T-7(3NAcPh)W-K(Ac)-Pen(3)-TMAPF-2Nal-THP-E-N-5MePyridinAla-Sar-CONH2] (Ac-[dR][Pen]NT[Trp(7-(3-AcNH-Ph))]K(Ac)[Pen]Y(X3)[2Nal][Thp]EN[3Pal(5-Me)][Sar]-NH2; disulfide 2-7), the EPSA was 183 A^2. Consider `COCCOCCOCCOCCOCCOCCOCCOCCNC(=O)CN(C)C(=O)[C@H](Cc1cccnc1)NC(=O)[C@H](CC(N)=O)NC(=O)[C@H](CCC(=O)O)NC(=O)C1(NC(=O)[C@H](Cc2ccc3ccccc3c2)NC(=O)[C@H](Cc2ccc(OCCN)cc2)NC(=O)[C@H]2NC(=O)[C@H](CCCCNC(C)=O)NC(=O)[C@H](Cc3c[nH]c4c(C)cccc34)NC(=O)[C@H]([C@@H](C)O)NC(=O)[C@H](CC(N)=O)NC(=O)[C@@H](NC(C)=O)C(C)(C)SSC2(C)C)CCOCC1` [compound 132], for which the EPSA was 163 A^2. The result for `CC(=O)N(C)CCCC[C@H](NC(=O)[C@H](Cc1c[nH]c2ccccc12)NC(=O)[C@H](Cc1ccc2ccccc2c1)NC(=O)[C@H](Cc1ccc(OCCOCCOCC[N+](C)(C)C)cc1)NC(=O)[C@H]1NC(=O)[C@H](Cc2c[nH]c3ccccc23)NC(=O)[C@H](Cc2c[nH]c3c(C)cccc23)NC(=O)[C@H]([C@@H](C)O)NC(=O)[C@H](Cc2c[nH]c3ccccc23)NC(=O)[C@@H](NC(=O)CCOCCOCC[N+](C)(C)C)C(C)(C)SSC1(C)C)C(=O)N[C@@H](CC(N)=O)C(=O)N[C@@H](Cc1cccnc1)C(=O)N(C)CC(=O)N(C)C` [compound 465, cPEG3aCO-Pen(3)-W-T-7MeW-W-Pen(3)-APEG3f-2Nal-W-K(NMeAc)-N-3Pya-Sar-CON(Me)2] ({Me3N+(CH2)2O(CH2)2O(CH2)2CO}-[Pen]WT[Trp(7-Me)]W[Pen]Y(CH2CH2OCH2CH2OCH2CH2NMe3+)[2Nal]W[Lys(Me)](Ac)N[3Pal][Sar]-NMe2; disulfide 1-6) reads 176 A^2; that for `COCCOCCOCC[N+](C)(C)CCOc1ccc(C[C@H](NC(=O)[C@H]2NC(=O)[C@H](CCCCN(C)C(C)=O)NC(=O)[C@H](Cc3c[nH]c4c(C)cccc34)NC(=O)[C@H]([C@@H](C)O)NC(=O)[C@H](CC(=O)N(C)C)NC(=O)[C@@H](NC(=O)CCOCCOCC[N+](C)(C)C)C(C)(C)SSC2(C)C)C(=O)N[C@@H](Cc2ccc3ccccc3c2)C(=O)NC2(C(=O)N[C@@H](CCCCN(C)C(C)=O)C(=O)N[C@@H](CC(N)=O)C(=O)N[C@@H](Cc3cccnc3)C(=O)N(C)CC(=O)N(C)C)CCOCC2)cc1` [compound 239, cPEG3aCO-Pen(3)-N(N(Me)2)-T-7MeW-K(NMeAc)-pen(3)-AEF(NMe2mPEG3)-2Nal-THP-K(NMeAc)-N-3Pya-Sar-CON(Me)2] ({Me3N+(CH2)2O(CH2)2O(CH2)2CO}-[Pen]D(NMe2)T[Trp(7-Me)][Lys(Me)](Ac)[Pen]Y(X90)[2Nal][Thp][Lys(Me)](Ac)N[3Pal][Sar]-NMe2; disulfide 1-6), 138 A^2; that for `CC(=O)NCCCC[C@@H]1NC(=O)[C@H](Cc2c[nH]c3c(C)cccc23)NC(=O)[C@H]([C@@H](C)O)NC(=O)[C@H](CC(N)=O)NC(=O)[C@@H](NC(C)=O)C(C)(C)SSC(C)(C)[C@@H](C(=O)N[C@@H](Cc2ccc(OCCN)cc2)C(=O)N[C@@H](Cc2ccc3ccccc3c2)C(=O)N[C@@](C)(CCCCN)C(=O)N[C@@H](CCCCNC(C)=O)C(=O)N[C@@H](CC(N)=O)C(=O)N[C@@H](Cc2cccnc2)C(=O)N(C)[C@H](Cc2ccc(O)cc2)C(N)=O)NC1=O` [compound 30, MeCO-Pen(3)-N-T-7MeW-K(Ac)-Pen(3)-AEF-2Nal-aMeK-K(ac)-N-3Pya-NMeDTyr-CONH2] (Ac-[Pen]NT[Trp(7-Me)]K(Ac)[Pen][AEF][2Nal][αMeK]K(Ac)N[3Pal][dNMeY]-NH2; disulfide 1-6), 166 A^2. `CC(=O)N[C@H](CCCNC(=N)N)C(=O)N[C@@H]1C(=O)N[C@@H](CC(=O)N(C)C)C(=O)N[C@@H]([C@@H](C)O)C(=O)N[C@@H](Cc2c[nH]c3c(C)cccc23)C(=O)N[C@@H](CCCCN(C)C(C)=O)C(=O)N[C@H](C(=O)N[C@@H](Cc2ccc(OCCCCC[N+](C)(C)C)cc2)C(=O)N[C@@H](Cc2ccc3ccccc3c2)C(=O)NC2(C(=O)N[C@@H](CCCCN(C)C(C)=O)C(=O)N[C@@H](CC(N)=O)C(=O)N[C@@H](Cc3cccnc3)C(=O)N(C)CC(=O)N(C)C)CCOCC2)C(C)(C)SSC1(C)C` [compound 345, MeCO-r-Pen(3)-N(N(Me)2)-T-7MeW-K(NMeAc)-Pen(3)-TMAPF-2Nal-THP-K(NMeAc)-N-3Pya-Sar-CON(Me)2] (Ac-[dR][Pen]D(NMe2)T[Trp(7-Me)][Lys(Me)](Ac)[Pen]Y(X3)[2Nal][Thp][Lys(Me)](Ac)N[3Pal][Sar]-NMe2; disulfide 2-7): the EPSA amounted to 162 A^2. On to `CC(=O)NC[C@H](NC(=O)C1(NC(=O)[C@H](Cc2ccc3ccccc3c2)NC(=O)[C@H](Cc2ccc(OCCN(C)C)cc2)NC(=O)[C@H]2NC(=O)[C@H](CCCCN(C)C(C)=O)NC(=O)[C@H](Cc3c[nH]c4c(C)cccc34)NC(=O)[C@H]([C@@H](C)O)NC(=O)[C@H](CC(=O)N(C)C)NC(=O)[C@@H](NC(=O)CCCCC[N+](C)(C)C)C(C)(C)SSC2(C)C)CCOCC1)C(=O)N[C@@H](CC(N)=O)C(=O)N[C@@H](Cc1cccnc1)C(=O)N(C)CC(=O)N(C)C` [compound 133, 5cpaCO-Pen(3)-N(N(Me)2)-T-7MeW-K(NMeAc)-Pen(3)-AEF(N(Me)2)-2Nal-THP-Dap(Ac)-N-3Pya-Sar-CON(Me)2] ({Hexanoyl(6-NMe3+)}-[Pen]D(NMe2)T[Trp(7-Me)][Lys(Me)](Ac)[Pen]Y(Me2NCH2CH2)[2Nal][Thp][Dap](Ac)N[3Pal][Sar]-NMe2; disulfide 1-6 (inferred)), for which the EPSA was determined as 151 A^2. On to `COCCOCCOCCOCCOCCOCCC(=O)N(C)CCCC[C@@H]1NC(=O)[C@H](Cc2c[nH]c3c(C)cccc23)NC(=O)[C@H]([C@@H](C)O)NC(=O)[C@H](CC(N)=O)NC(=O)[C@@H](NC(C)=O)C(C)(C)SSC(C)(C)[C@@H](C(=O)N[C@@H](Cc2ccc(OCCN)cc2)C(=O)N[C@@H](Cc2ccc3ccccc3c2)C(=O)NC2(C(=O)N[C@@H](CCCCNC(C)=O)C(=O)N[C@@H](CC(N)=O)C(=O)N[C@@H](Cc3cccnc3)C(=O)N(C)CC(N)=O)CCOCC2)NC1=O` [compound 124] (Ac-[Pen]NT[Trp(7-Me)][Lys(Me)](X7)[Pen][AEF][2Nal][Thp]K(Ac)N[3Pal][Sar]-NH2; disulfide 1-6), for which the EPSA was 158 A^2. `CC(=O)NCCCC[C@@H]1NC(=O)[C@H](Cc2c[nH]c3c(C)cccc23)NC(=O)[C@H]([C@@H](C)O)NC(=O)[C@H](CC(N)=O)NC(=O)[C@@H](NC(=O)[C@@H](CCCNC(=N)N)NC(=O)CCOCCOCCOCCOCCOCCOCCOCCOCCOCCNC(C)=O)C(C)(C)SSC(C)(C)[C@@H](C(=O)N[C@@H](Cc2ccc(OCCN)cc2)C(=O)N[C@@H](Cc2ccc3ccccc3c2)C(=O)NC2(C(=O)N[C@@H](CCC(=O)O)C(=O)N[C@@H](CC(N)=O)C(=O)N[C@@H](Cc3cccnc3)C(=O)N(C)CC(N)=O)CCOCC2)NC1=O` [compound 43] (Ac-[PEG9][dR][Pen]NT[Trp(7-Me)]K(Ac)[Pen][AEF][2Nal][Thp]EN[3Pal][Sar]-NH2; disulfide 3-8): the EPSA turned out to be 173 A^2.
